Results taken from US9221814B2, “Heterocyclic guanidine F1F0-atpase inhibitors and therapeutic uses thereof” (Lycera Corporation, priority 2012, dated 2015).
Where two headings read alike, the source gives them in different places.

Columns and labels:
Ramos cells = assay: Cytotoxicity in Ramos cells; format: cell-based; details: detection limit EC50=16 μM, read-out: Ramos Cell EC50
Experimental: (§1) Exemplary compounds described in above Examples were tested for activity against F1F0-ATPase by measuring the ability of the compounds to inhibit ATP synthesis. In addition, the compounds were assessed for cytotoxicity in Ramos cells. Inhibition of F1F0-ATPase activity in synthesizing ATP and cytotoxicity in Ramos cells were measured according to the procedures described in K. M. Johnson et al. Chemistry & Biology 2005, 12, 485-496.

F1F0-ATPase = target: T1, F1F0-ATPase (Bos taurus, UniProt P13621); assay: Inhibition of F1F0-ATPase activity in synthesizing ATP (ATP synthesis inhibition); format: biochemical; details: detection limit IC50=16 μM, read-out: ATP Syn IC50
T1 construct: from tissue
Experimental: as §1

| SMILES | EC50 (Ramos cells) [µM] | IC50 (F1F0-ATPase) [µM] | EC50 (Ramos cells; Homo sapiens) [µM] |
| --- | --- | --- | --- |
| COc1cccc(CN/C(=N/C(=O)c2cc(C(C)(C)C)nn2C)Nc2cc(-c3ccc(F)cc3)n[nH]2)c1 [Compound A-46] | < 5 | < 5 |  |
| Cc1nnsc1C(=O)/N=C(\Nc1cc(-c2ccc(F)cc2)n[nH]1)NC(C)(C)C [Compound A-47] | < 5 | 5 to 16 |  |
| Cc1cc(C(=O)/N=C(\Nc2cc(-c3ccc(F)cc3)n[nH]2)NC(C)C)no1 [Compound A-48] | > 16 | > 16 |  |
| CC(C)N/C(=N/C(=O)c1cc(C(C)(C)C)nn1C)Nc1cc(-c2ccc(F)cc2)n[nH]1 [Compound A-49] | < 5 | < 5 |  |
| COC[C@H](C)N/C(=N/C(=O)c1cc(C(C)(C)C)nn1C)Nc1cc(-c2ccc(F)cc2)n[nH]1 [Compound A-50] | < 5 | < 5 |  |
| Cn1nc(C(C)(C)C)cc1C(=O)/N=C(\Nc1cc(-c2ccc(F)cc2)n[nH]1)NC1CCCC1 [Compound A-51] | < 5 | < 5 |  |
| COC[C@H](C)N/C(=N/C(=O)c1cc(C)on1)Nc1cc(-c2ccc(F)cc2)n[nH]1 [Compound A-52] | > 16 | > 16 |  |
| CCn1nc(C)cc1C(=O)/N=C(\Nc1cc(-c2ccc(F)cc2)n[nH]1)NC(C)(C)C [Compound A-53] | < 5 | < 5 |  |
| CCn1nc(C)cc1C(=O)/N=C(\Nc1cc(-c2ccc(F)cc2)n[nH]1)NC(C)C [Compound A-54] | < 5 | < 5 |  |
| CCn1nc(C)cc1C(=O)N=C(Nc1cc(-c2ccc(F)cc2)n[nH]1)NC(C)COC (centres unmarked) [Compound A-55] | 5 to 16 | 5 to 16 |  |
| CC(C)n1ccc(C(=O)/N=C(\Nc2cc(-c3ccc(F)cc3)n[nH]2)NC(C)(C)C)n1 [Compound A-56] | 5 to 16 | < 5 |  |
| CC(C)N/C(=N/C(=O)c1ccn(C(C)C)n1)Nc1cc(-c2ccc(F)cc2)n[nH]1 [Compound A-57] | 5 to 16 | 5 to 16 |  |
| CCCn1ccc(C(=O)/N=C(\Nc2cc(-c3ccc(F)cc3)n[nH]2)NC(C)(C)C)n1 [Compound A-58] | < 5 | < 5 |  |
| CCCn1ccc(C(=O)N=C(Nc2cc(-c3ccc(F)cc3)n[nH]2)NC(C)C)n1 [Compound A-59] |  | 5 to 16 | 5 to 16 |
| CCn1ccc(C(=O)/N=C(\Nc2cc(-c3ccc(F)cc3)n[nH]2)NC(C)(C)C)n1 [Compound A-60] | 5 to 16 | < 5 |  |
| CC(C)c1cc(C(=O)/N=C(\Nc2cc(-c3ccc(F)cc3)n[nH]2)NC(C)(C)C)on1 [Compound A-61] | < 5 | < 5 |  |
| CCn1ccc(C(=O)/N=C(\Nc2cc(-c3ccc(F)cc3)n[nH]2)NC(C)C)n1 [Compound A-62] | > 16 | > 16 |  |
| CC(C)N/C(=N/C(=O)c1cc(C(C)C)no1)Nc1cc(-c2ccc(F)cc2)n[nH]1 [Compound A-63] | 5 to 16 | < 5 |  |
| Cc1cc(C(=O)N=C(Nc2cc(-c3ccc(Cl)cc3)n[nH]2)NC(C)C)n(C)n1 [Compound A-64] |  | < 5 | 5 to 16 |
| Cc1cc(C(=O)/N=C(\Nc2cc(-c3ccc(Cl)cc3)n[nH]2)NC(C)(C)C)n(C)n1 [Compound A-65] | 5 to 16 | < 5 |  |
| Cc1cc(C(=O)/N=C(/NCC(C)C)Nc2cc(-c3ccc(Cl)cc3)n[nH]2)n(C)n1 [Compound A-66] | < 5 | < 5 |  |
| COCC(C)NC(=NC(=O)c1cc(C)nn1C)Nc1cc(-c2ccc(Cl)cc2)n[nH]1 (centres unmarked) [Compound A-67] |  | < 5 | 5 to 16 |
| Cc1oncc1C(=O)/N=C(\Nc1cc(-c2ccc(Cl)cc2)n[nH]1)NC(C)(C)C [Compound A-68] | < 5 | < 5 |  |
| Cc1oncc1C(=O)/N=C(/NCC(C)C)Nc1cc(-c2ccc(Cl)cc2)n[nH]1 [Compound A-69] | > 16 | > 16 |  |
| Cc1oncc1C(=O)N=C(Nc1cc(-c2ccc(Cl)cc2)n[nH]1)NC(C)C [Compound A-70] |  | > 16 | > 16 |
| CC(C)N/C(=N/C(=O)c1cc(C(C)(C)C)nn1C)Nc1cc(-c2ccc(Cl)cc2)n[nH]1 [Compound A-71] | < 5 | 5 to 16 |  |

| SMILES | EC50 (Ramos cells) [µM] | IC50 (F1F0-ATPase) [µM] | EC50 (Ramos cells; Homo sapiens) [µM] |
| --- | --- | --- | --- |
| Cn1nc(C(C)(C)C)cc1C(=O)/N=C(\Nc1cc(-c2ccc(Cl)cc2)n[nH]1)NC(C)(C)C [Compound A-72] | < 5 | < 5 |  |
| CC(C)CN/C(=N/C(=O)c1cc(C(C)(C)C)nn1C)Nc1cc(-c2ccc(Cl)cc2)n[nH]1 [Compound A-73] | < 5 | < 5 |  |
| Cn1nc(C(C)(C)C)cc1C(=O)/N=C(\Nc1cc(-c2ccc(Cl)cc2)n[nH]1)NC1CCCC1 [Compound A-74] | < 5 | < 5 |  |
| COCC(C)NC(=NC(=O)c1cnoc1C)Nc1cc(-c2ccc(Cl)cc2)n[nH]1 (centres unmarked) [Compound A-75] |  | 5 to 16 | > 16 |
| COC[C@H](C)N/C(=N/C(=O)c1cc(C(C)(C)C)nn1C)Nc1cc(-c2ccc(Cl)cc2)n[nH]1 [Compound A-76] | < 5 | < 5 |  |
| Cc1oncc1C(=O)/N=C(\Nc1cc(-c2cc(F)cc(F)c2)n[nH]1)NC(C)C [Compound A-77] | > 16 | 5 to 16 |  |
| Cc1oncc1C(=O)/N=C(\Nc1cc(-c2cc(F)cc(F)c2)n[nH]1)NC1CCCC1 [Compound A-78] | > 16 | < 5 |  |
| Cc1oncc1C(=O)/N=C(/NCC(C)C)Nc1cc(-c2cc(F)cc(F)c2)n[nH]1 [Compound A-79] | > 16 | > 16 |  |
| COC[C@H](C)N/C(=N/C(=O)c1cnoc1C)Nc1cc(-c2cc(F)cc(F)c2)[nH]n1 [Compound A-80] | > 16 | 5 to 16 |  |
| Cc1cc(C(=O)N=C(Nc2cc(-c3cc(F)cc(F)c3)n[nH]2)NC(C)C)n(C)n1 [Compound A-81] |  | < 5 | 5 to 16 |
| Cc1cc(C(=O)/N=C(\Nc2cc(-c3cc(F)cc(F)c3)n[nH]2)NC2CCCC2)n(C)n1 [Compound A-82] | 5 to 16 | < 5 |  |
| Cc1cc(C(=O)/N=C(/NCC(C)C)Nc2cc(-c3cc(F)cc(F)c3)n[nH]2)n(C)n1 [Compound A-83] | 5 to 16 | < 5 |  |
| COC[C@H](C)N/C(=N/C(=O)c1cc(C)nn1C)Nc1cc(-c2cc(F)cc(F)c2)[nH]n1 [Compound A-84] | > 16 | 5 to 16 |  |
| Cc1oncc1C(=O)/N=C(/NCc1ccc(F)cc1Cl)Nc1cc(-c2ccc(Cl)cc2)n[nH]1 [Compound A-85] | 5 to 16 | 5 to 16 |  |
| Cc1cc(C(=O)/N=C(/NCc2ccc(F)cc2Cl)Nc2cc(-c3ccc(F)cc3)n[nH]2)n(C)n1 [Compound A-86] | 5 to 16 | < 5 |  |
| Cc1oncc1C(=O)/N=C(\Nc1cc(-c2cc(F)cc(F)c2)n[nH]1)NC(C)(C)C [Compound A-87] | < 5 | < 5 |  |
| CCC(C)N/C(=N/C(=O)c1cnoc1C)Nc1cc(-c2cc(F)cc(F)c2)n[nH]1 (centres unmarked) [Compound A-88] | 5 to 16 | < 5 |  |
| Cc1oncc1C(=O)/N=C(\Nc1cc(-c2ccc(Cl)cc2)[nH]n1)NC1CCCC1 [Compound A-89] | > 16 | > 16 |  |
| CCC(C)N/C(=N/C(=O)c1cnoc1C)Nc1cc(-c2ccc(Cl)cc2)n[nH]1 (centres unmarked) [Compound A-90] | > 16 | > 16 |  |
| Cc1ccc(-c2cc(N/C(=N\C(=O)c3cnoc3C)NC3CCCC3)n[nH]2)cc1F [Compound A-91] | < 5 | < 5 |  |
| Cc1ccc(-c2cc(N/C(=N\C(=O)c3cnoc3C)NC3(C)CCCC3)[nH]n2)cc1F [Compound A-92] | < 5 | < 5 |  |
| Cc1ccc(-c2cc(N/C(=N\C(=O)c3cnoc3C)NC(C)(C)C)[nH]n2)cc1F [Compound A-93] | < 5 | < 5 |  |
| Cc1ccc(-c2cc(N/C(=N\C(=O)c3cnoc3C)NC3CCC3)[nH]n2)cc1F [Compound A-94] | 5 to 16 | < 5 |  |
| Cc1oncc1C(=O)/N=C(\Nc1cc(-c2cc(F)cc(F)c2)n[nH]1)NC1(C)CCCC1 [Compound A-95] | < 5 | < 5 |  |
| Cc1oncc1C(=O)/N=C(\Nc1cc(-c2cc(F)cc(Cl)c2)n[nH]1)NC(C)(C)C [Compound A-96] | < 5 | < 5 |  |
| Cc1oncc1C(=O)N=C(Nc1cc(-c2cc(F)cc(Cl)c2)n[nH]1)NC1CCCC1 [Compound A-97] |  | < 5 | < 5 |
